Results published in US20200000752A1, “Method for Treating Epilepsy” (Vanderbilt University, priority 2016, published 2020).
“Also recorded” adds a separate entry of the source.

Key:
Scn1a^+/− mice = settings: for Number SWDs: SWDs over 1 sec, 30 min after PTZ 50 mg/kg, n=2, celastrol 0.3 mg/kg intermittent (8th day of drug holiday), diazepam 0.3 mg/kg, stiripentol 150 mg/kg, saline 21
CYP 2C19 [1] = target: T1, CYP 2C19 (Homo sapiens, UniProt P33261)
[2] = tested on: cytochrome P450 enzymes (CYPs); settings: cited from earlier work
CYP 2D6 = CYP 2D6 (Homo sapiens, UniProt P10635); experiment: biochemical
Chain of CYP 2D6 (P10635 whole entry): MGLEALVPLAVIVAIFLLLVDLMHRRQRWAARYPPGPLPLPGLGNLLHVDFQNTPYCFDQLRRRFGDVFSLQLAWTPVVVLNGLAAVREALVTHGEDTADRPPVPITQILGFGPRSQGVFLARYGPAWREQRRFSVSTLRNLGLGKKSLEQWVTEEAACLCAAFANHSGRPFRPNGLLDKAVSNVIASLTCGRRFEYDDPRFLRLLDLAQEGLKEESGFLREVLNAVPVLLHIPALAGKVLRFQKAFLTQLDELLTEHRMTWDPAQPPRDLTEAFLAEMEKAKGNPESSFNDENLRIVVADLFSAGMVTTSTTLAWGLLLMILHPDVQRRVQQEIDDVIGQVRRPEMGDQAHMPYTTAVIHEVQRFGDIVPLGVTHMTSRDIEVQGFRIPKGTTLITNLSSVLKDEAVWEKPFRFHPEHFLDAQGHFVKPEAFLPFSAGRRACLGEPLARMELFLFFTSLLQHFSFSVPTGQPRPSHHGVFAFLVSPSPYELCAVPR

CYP 2C19 [3] = target: T1, CYP 2C19; experiment: biochemical
CYP 2C9 = CYP 2C9 (Homo sapiens, UniProt P11712); experiment: biochemical
Chain of CYP 2C9 (P11712 whole entry): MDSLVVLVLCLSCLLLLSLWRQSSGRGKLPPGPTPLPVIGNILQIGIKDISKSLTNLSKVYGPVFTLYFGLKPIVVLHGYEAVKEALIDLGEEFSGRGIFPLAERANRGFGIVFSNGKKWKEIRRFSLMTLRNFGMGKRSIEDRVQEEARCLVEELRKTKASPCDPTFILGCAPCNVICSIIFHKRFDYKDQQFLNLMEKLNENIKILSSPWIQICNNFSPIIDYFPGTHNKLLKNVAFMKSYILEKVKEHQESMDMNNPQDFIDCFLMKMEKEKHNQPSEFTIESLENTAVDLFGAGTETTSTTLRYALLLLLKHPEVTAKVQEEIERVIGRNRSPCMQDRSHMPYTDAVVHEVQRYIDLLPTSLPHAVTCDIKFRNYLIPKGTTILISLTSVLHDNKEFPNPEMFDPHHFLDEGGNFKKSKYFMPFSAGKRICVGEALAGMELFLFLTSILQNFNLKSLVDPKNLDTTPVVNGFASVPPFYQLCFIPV

CYP 2C8 = CYP 2C8 (Homo sapiens, UniProt P10632); experiment: biochemical
Chain of CYP 2C8 (P10632 whole entry): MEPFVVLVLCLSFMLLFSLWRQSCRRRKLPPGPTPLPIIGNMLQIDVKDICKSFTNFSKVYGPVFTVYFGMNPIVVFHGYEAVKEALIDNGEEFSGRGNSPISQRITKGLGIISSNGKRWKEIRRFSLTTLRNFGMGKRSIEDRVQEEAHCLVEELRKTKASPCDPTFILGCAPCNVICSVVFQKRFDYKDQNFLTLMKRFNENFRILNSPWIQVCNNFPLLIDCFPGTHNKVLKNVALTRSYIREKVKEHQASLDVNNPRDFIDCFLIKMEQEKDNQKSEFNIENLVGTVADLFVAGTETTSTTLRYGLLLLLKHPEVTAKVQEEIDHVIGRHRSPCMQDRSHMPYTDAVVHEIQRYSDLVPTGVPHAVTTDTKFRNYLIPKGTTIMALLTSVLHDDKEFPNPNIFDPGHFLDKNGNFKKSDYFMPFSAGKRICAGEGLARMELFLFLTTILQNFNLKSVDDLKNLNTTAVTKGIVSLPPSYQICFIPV

CYP 2B6 = CYP 2B6 (Homo sapiens, UniProt P20813); experiment: biochemical
Chain of CYP 2B6 (P20813 whole entry): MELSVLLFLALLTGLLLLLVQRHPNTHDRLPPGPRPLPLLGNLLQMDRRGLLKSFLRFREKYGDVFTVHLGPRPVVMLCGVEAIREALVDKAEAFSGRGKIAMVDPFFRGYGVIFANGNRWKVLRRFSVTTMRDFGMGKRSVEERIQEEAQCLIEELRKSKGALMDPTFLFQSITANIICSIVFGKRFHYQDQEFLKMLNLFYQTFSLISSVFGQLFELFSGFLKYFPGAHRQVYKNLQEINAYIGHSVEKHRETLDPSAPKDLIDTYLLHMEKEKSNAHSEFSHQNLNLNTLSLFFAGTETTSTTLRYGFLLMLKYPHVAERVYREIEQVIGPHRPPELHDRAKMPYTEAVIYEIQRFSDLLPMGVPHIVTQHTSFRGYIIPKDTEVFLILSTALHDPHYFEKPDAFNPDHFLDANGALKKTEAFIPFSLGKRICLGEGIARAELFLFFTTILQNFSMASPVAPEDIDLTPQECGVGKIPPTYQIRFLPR

CYP 1A2 [4] = target: T2, CYP 1A2 (Homo sapiens, UniProt P05177); experiment: biochemical
T2 sequence (P05177 whole entry): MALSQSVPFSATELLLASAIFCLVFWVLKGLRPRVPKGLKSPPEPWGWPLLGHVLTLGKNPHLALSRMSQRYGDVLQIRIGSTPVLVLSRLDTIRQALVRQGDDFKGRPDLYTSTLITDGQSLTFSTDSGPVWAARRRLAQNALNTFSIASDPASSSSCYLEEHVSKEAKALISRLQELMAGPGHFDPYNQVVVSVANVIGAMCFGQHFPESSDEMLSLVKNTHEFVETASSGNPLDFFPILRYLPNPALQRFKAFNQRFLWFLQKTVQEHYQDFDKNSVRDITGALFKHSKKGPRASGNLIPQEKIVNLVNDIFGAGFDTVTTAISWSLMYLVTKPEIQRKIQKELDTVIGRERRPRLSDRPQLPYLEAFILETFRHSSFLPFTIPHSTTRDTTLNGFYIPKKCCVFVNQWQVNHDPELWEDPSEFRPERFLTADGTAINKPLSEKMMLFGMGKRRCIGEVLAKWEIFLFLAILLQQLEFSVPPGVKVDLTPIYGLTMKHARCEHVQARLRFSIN

CYP 1A2 [5] = target: T2, CYP 1A2; experiment: CYP inhibition, 1A2
MDCKII cells = experiment: MDCKII bidirectional assay; format: in vitro ADME
Excerpt: MDCKII bidirectional assay was run in collaboration with Dr. Shaun Stauffer in Vanderbilt Institute of Chemical Biology (VICB) synthesis core who is a consultant on this project.

T1 sequence (P33261 whole entry): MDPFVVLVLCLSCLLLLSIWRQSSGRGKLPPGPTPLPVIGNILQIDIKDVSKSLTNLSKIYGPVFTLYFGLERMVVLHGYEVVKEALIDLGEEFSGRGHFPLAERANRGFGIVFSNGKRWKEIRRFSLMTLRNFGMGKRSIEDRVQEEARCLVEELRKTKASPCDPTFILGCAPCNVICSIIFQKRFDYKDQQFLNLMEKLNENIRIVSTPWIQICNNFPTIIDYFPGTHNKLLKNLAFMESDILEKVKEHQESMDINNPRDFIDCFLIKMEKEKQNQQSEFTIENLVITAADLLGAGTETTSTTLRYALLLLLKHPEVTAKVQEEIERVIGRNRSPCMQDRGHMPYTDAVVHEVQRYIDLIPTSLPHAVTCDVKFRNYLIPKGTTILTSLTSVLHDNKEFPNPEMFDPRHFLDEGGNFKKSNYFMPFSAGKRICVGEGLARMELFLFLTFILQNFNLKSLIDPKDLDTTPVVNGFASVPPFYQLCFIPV

Row | SMILES | Number SWDs (Scn1a^+/− mice) | inhibition of 2C19, in words (CYP 2C19 [1]) | appearance and mortality (Scn1a^+/− mice; mouse, in vivo, 300 mg/kg) | CYP inhibition as reported in the literature [2] | IC50 (CYP 2D6) [µM] | IC50 (CYP 2C19 [3]) [µM] | IC50 (CYP 2C9) [µM] | IC50 (CYP 2C8) [µM] | IC50 (CYP 2B6) [µM] | IC50 (CYP 1A2 [4]) [µM] | inhibition of 1A2, in words (CYP 1A2 [5]) | permeability in MDCK II bidirectional assay, in words (MDCKII cells)
1 | CN1C(=O)CN=C(c2ccccc2)c2cc(Cl)ccc21 [Diazepam] | 8 | – | – | – | – | – | – | – | – | – | – | –
2 | CC(C)(C)C(O)/C=C/c1ccc2c(c1)OCO2 (stereo not shown) [Stiripentol] | 11 | potent inhibitor; also recorded: very potent inhibitor | appeared lethargic and had increased mortality | inhibit CYPs including 1A2, 2C9, 2C19, 2D6 and 3A4 | > 10 | 1.84 | > 10 | > 10 | 8.82 | 1.26 | potent inhibitor; also recorded: very potent inhibitor | –
3 | COc1cc(/C=C/C(=O)CC(=O)/C=C/c2ccc(O)c(OC)c2)ccc1O [curcumin, reference compound] | – | – | – | – | – | – | – | – | – | – | – | impermeable
